Measurements reported in US20020183313A1, “1,4-benzodiazepinones and their uses as CCK antagonists” (Fujisawa Pharmaceutical Co., Ltd., priority 1996, published 2002).

| melting point | Structure (SMILES) |
| --- | --- |
| 121 to 123 °C | CCCCC1=NC(NC(=O)Nc2cccc(C)c2)C(=O)N(CC(=O)N2CC3CCC(CC3)C2)c2ccccc21 (racemic) |
| 218 to 222 °C (dec.) | O=C(Nc1cccc(-c2nnn[nH]2)c1)NC1N=C(CC2CCCCC2)c2ccccc2N(CC(=O)N2CC3CCC(CC3)C2)C1=O (racemic) |
| 132.1 to 146 °C | Cc1cccc2c1N(CC(=O)c1ccccc1O)C(=O)C(NC(=O)Nc1cccc(-c3nnnn3C(c3ccccc3)(c3ccccc3)c3ccccc3)c1)N=C2c1ccccc1F (racemic) |
| 192 to 216.6 °C (dec.) | CC(=O)N(C(C)=O)c1ccccc1C(=O)CN1C(=O)C(NC(=O)Nc2cccc(-c3nnn[nH]3)c2)N=C(c2ccccc2F)c2cccc(C)c21 (racemic) |
| 199.1 to 207.8 °C | CC(=NO)c1cccc(NC(=O)NC2N=C(c3ccccc3F)c3cccc(C)c3N(CC(=O)N3CC4CCC(CC4)C3)C2=O)c1 (racemic) |
| 132 to 135 °C | CC(C)C1=NC(NC(=O)Nc2ccccc2)C(=O)N(CC(=O)N2CC3CCC(CC3)C2)c2ccccc21 (racemic) |
| 138 to 140 °C | CC(C)C1=NC(NC(=O)NC2CCCCC2)C(=O)N(CC(=O)N2CC3CCC(CC3)C2)c2ccccc21 (racemic) |
| 186.2 to 197.6 °C | Cc1cccc2c1N(CC(=O)N1CC3CCC(CC3)C1)C(=O)C(NC(=O)Nc1cccc(-c3nnn[nH]3)c1)N=C2C1CCCCC1 (racemic) |
| 173.9 to 182 °C | Cc1cccc2c1N(Cc1ccccn1)C(=O)C(NC(=O)Nc1cccc(-c3nnn[nH]3)c1)N=C2c1ccccc1F (racemic) |
| 172 to 180.5 °C | O=C(Nc1cccc(-c2nnn[nH]2)c1)NC1N=C(c2ccccc2F)c2cccc(Cl)c2N(CC(=O)N2CC3CCC(CC3)C2)C1=O (racemic) |
| 160.4 to 180.7 °C (dec.) | Cc1cccc2c1N(CC(=O)C(C)(C)C)C(=O)C(NC(=O)Nc1cccc(-c3nnn[nH]3)c1)N=C2c1ccccc1F (racemic) |
| 150.8 to 152.1 °C | CC1=NC(NC(=O)Nc2cccc(C)n2)C(=O)N(CC(=O)N2CC3CCC(CC3)C2)c2c(C)cccc21 (racemic) |
| 190.9 to 193.1 °C | CC1=NC(NC(=O)Nc2cccc(N(C)C)c2)C(=O)N(CC(=O)N2CC3CCC(CC3)C2)c2c(C)cccc21.Cl (racemic) |
| 216.5 to 218.7 °C | CC1=NC(NC(=O)Nc2cccc(C)c2)C(=O)N(CC(=O)N2CC3CCC(CC3)C2)c2c1cccc2N(C)C.Cl (racemic) |
| 151.4 to 174.2 °C (dec.) | Cc1cccc2c1N(CC(=O)OC(C)(C)C)C(=O)C(NC(=O)Nc1cccc(-c3nnn[nH]3)c1)N=C2c1ccccc1F (racemic) |
| 195 to 218.4 °C (dec.) | Cc1cccc2c1N(CC(=O)C13CC4CC(CC(C4)C1)C3)C(=O)C(NC(=O)Nc1cccc(-c3nnn[nH]3)c1)N=C2c1ccccc1F (racemic) |
| 173.5 to 189.8 °C | CC(=O)CN1C(=O)C(NC(=O)Nc2cccc(-c3nnn[nH]3)c2)N=C(c2ccccc2F)c2cccc(C)c21 (racemic) |
| 192.2 to 197.1 °C | Cc1cccc2c1N(CC(=O)c1ccccc1[N+](=O)[O-])C(=O)C(NC(=O)Nc1cccc(-c3nnn[nH]3)c1)N=C2c1ccccc1F (racemic) |
| 168.1 to 171.1 °C | CC1=NC(NC(=O)Nc2cccc(Br)c2)C(=O)N(CC(=O)N2CC3CCC(CC3)C2)c2c(C)cccc21 (racemic) |
| 237.2 to 238.5 °C | CSc1cccc(NC(=O)NC2N=C(C)c3cccc(C)c3N(CC(=O)N3CC4CCC(CC4)C3)C2=O)c1 (racemic) |
| 176.9 to 179.1 °C | CC1=NC(NC(=O)Nc2cccc(C)c2)C(=O)N(CC(=O)N2CC3CCC(CC3)C2)c2c(C)cccc21 (racemic) |
| 178.1 to 182.1 °C | COCC1=NC(NC(=O)Nc2cccc(C)c2)C(=O)N(CC(=O)N2CC3CCC(CC3)C2)c2c(C)cccc21 (racemic) |
| 150 to 153 °C | CC1=NC(NC(=O)Nc2cccc(C)c2)C(=O)N(CC(=O)N2CC3CCC(CC3)C2)c2ccccc21 (racemic) |
| 134 to 135 °C | CSc1cccc(NC(=O)NC2N=C(C(C)C)c3ccccc3N(CC(=O)N3CC4CCC(CC4)C3)C2=O)c1 (racemic) |
